Measurements taken from patent publication US20220373534A1, “HUMAN NASOPHARYNGEAL CARCINOMA CELLS DERIVED FROM PATIENT DERIVED XENOGRAFT AND USES THEREOF” (Chang Gung Memorial Hospital, Linkou, priority 2021, published 2022).

Test system: NPC PDX-B13
Test: In vivo study of tumor volume in the NPC PDX-B13 mouse model
Design: species or system NOD/SCID mice
Settings: week 6, read from FIG. 4
Description: NPC cell lines, C666-1 (EBV positive) and HK-1 (EBV negative), were maintained in RPMI containing 10% fetal bovine serum (FBS). A cell growth assay and animal studies were conducted as described by CL Hsu et al (“Application of a Patient-Derived Xenograft Model in Cytolytic Viral Activation Therapy for Nasopharyngeal Carcinoma.” Oncotarget 6, no. 31 (2015): 31323-34).
PDX models were generated as follows: NPC tumor samples were obtained from patients with local recurrence or metastasis undergoing biopsy or surgical resection. Each sample was immediately cut into smaller pieces of approximately 3-5 mm in diameter and subcutaneously implanted into the flank regions of anesthetized NOD/SCID mice. The xenograft was excised and reimplanted in small pieces into the next passage after the tumor reached 1-2 cm in diameter.

Row | Compound | inhibit PDX-B13 tumor growth (reduce tumor volume)
1 | CN(C)C/C=C/C(=O)Nc1cc2c(Nc3ccc(F)c(Cl)c3)ncnc2cc1O[C@H]1CCOC1 [AFA, Afatinib] | approximately 30%
2 | CC(=O)c1c(C)c2cnc(Nc3ccc(N4CCNCC4)cn3)nc2n(C2CCCC2)c1=O [PAL, Palbociclib] | ~70%
